The source of these data is US11548884B2, “Cyclic amidine compounds for the treatment of autoimmune disease” (Hoffmann-La Roche Inc., priority 2018, dated 2023).

In the test the target is T1, human TLR8 (Homo sapiens, UniProt Q9NR97).
T1 sequence (Q9NR97 27-1041): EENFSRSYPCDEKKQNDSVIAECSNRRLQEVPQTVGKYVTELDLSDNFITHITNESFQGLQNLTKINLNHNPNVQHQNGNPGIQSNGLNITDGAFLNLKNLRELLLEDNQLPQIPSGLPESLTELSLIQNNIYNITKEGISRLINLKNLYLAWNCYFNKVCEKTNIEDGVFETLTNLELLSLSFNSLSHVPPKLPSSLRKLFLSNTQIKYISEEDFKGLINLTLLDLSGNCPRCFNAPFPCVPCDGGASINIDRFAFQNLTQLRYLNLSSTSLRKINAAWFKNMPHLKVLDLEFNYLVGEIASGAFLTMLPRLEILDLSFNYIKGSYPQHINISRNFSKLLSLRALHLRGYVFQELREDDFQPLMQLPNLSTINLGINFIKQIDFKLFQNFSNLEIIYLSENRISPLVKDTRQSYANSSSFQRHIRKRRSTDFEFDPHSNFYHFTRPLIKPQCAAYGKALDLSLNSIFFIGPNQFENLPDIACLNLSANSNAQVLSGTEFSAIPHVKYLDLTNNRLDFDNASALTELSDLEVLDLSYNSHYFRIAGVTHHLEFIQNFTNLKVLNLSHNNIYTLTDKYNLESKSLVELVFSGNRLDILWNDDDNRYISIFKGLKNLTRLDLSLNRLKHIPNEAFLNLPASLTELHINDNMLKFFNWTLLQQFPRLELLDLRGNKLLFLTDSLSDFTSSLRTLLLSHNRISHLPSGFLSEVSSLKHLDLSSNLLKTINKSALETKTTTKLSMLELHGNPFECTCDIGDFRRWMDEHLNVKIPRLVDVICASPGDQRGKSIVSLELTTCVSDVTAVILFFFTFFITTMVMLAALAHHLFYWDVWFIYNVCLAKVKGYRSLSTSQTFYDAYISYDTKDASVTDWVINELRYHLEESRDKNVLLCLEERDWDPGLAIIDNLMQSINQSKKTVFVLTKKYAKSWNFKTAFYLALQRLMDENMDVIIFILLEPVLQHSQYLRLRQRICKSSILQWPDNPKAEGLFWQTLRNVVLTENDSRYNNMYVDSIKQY
As to the kind of experiment: HEK293-Blue-hTLR-8 cells assay (SEAP reporter, R848 stimulation). Conditions: HEK293-Blue-hTLR8 cells, R848 ligand, 20 h incubation. Type of test: cell-based. The protocol:
The following tests were carried out in order to determine the activity of the compounds of formula (I) in HEK293-Blue-hTLR-7/8/9 cells assay.
HEK293-Blue-hTLR-8 Cells Assay:
A stable HEK293-Blue-hTLR-8 cell line was purchased from InvivoGen (Cat. #: hkb-htlr8, San Diego, Calif., USA). These cells were originally designed for studying the stimulation of human TLR8 by monitoring the activation of NF-κB. A SEAP (secreted embryonic alkaline phosphatase) reporter gene was placed under the control of the IFN-β minimal promoter fused to five NF-κB and AP-1-binding sites. The SEAP was induced by activating NF-κB and AP-1 via stimulating HEK-Blue hTLR8 cells with TLR8 ligands. Therefore the reporter expression was declined by TLR8 antagonist under the stimulation of a ligand, such as R848, for incubation of 20 h. The cell culture supernatant SEAP reporter activity was determined using QUANTI-Blue™ kit (Cat. #: rep-qb1, Invivogen, San Diego, Calif., USA) at a wavelength of 640 nm, a detection medium that turns purple or blue in the presence of alkaline phosphatase.
HEK293-Blue-hTLR8 cells were incubated at a density of 250,000˜450,000 cells/mL in a volume of 170 μL in a 96-well plate in Dulbecco's Modified Eagle's medium (DMEM) containing 4.5 g/L glucose, 50 U/mL penicillin, […], […], 2 mM L-glutamine, 10% (v/v) heat-inactivated fetal bovine serum with addition of 20 μL test compound in a serial dilution in the presence of final DMSO at 1% and 10 μL of 60 uM R848 in above DMEM, perform incubation under 37° C. in a CO2 incubator for 20 h. Then 20 μL of the supernatant from each well was incubated with 180 μL Quanti-blue substrate solution at 37° C. for 2 h and the absorbance was read at 620˜655 nm using a spectrophotometer. The signalling pathway that TLR8 activation leads to downstream NF-κB activation has been widely accepted, and therefore similar reporter assay was modified for evaluating TLR8 antagonist.
The IC50 is the concentration that gives 50% inhibition. Higher therefore signals a need for much substance. In turn, `C[C@@H]1CN(c2ccc(C#N)c3ncccc23)C[C@H](C2=Nc3cccc(N4CCNCC4)c3CN2)O1` [Example 6, 5-[(2R,6R)-2-methyl-6-(5-piperazin-1-yl-3,4-dihydroquinazolin-2-yl)morpholin-4-yl]quinoline-8-carbonitrile] displayed a half-inhibitory concentration (IC50) of 8 nM.

`C[C@@H]1CN(c2ccc(C#N)c3ncccc23)C[C@H](C2=Nc3cccc(N4CCN(C)CC4)c3CN2)O1` [Example 12, 5-[(2R,6R)-2-methyl-6-[5-(4-methylpiperazin-1-yl)-3,4-dihydroquinazolin-2-yl]morpholin-4-yl]quinoline-8-carbonitrile]: half-maximal inhibition (IC50) required 14 nM.

`C[C@@H]1CN(c2ccc(C#N)c3ncccc23)C[C@H](C2=Nc3cc(N4CCNCC4)ccc3CN2)O1` [Example 8, 5-[(2R,6R)-2-methyl-6-(7-piperazin-1-yl-3,4-dihydroquinazolin-2-yl)morpholin-4-yl]quinoline-8-carbonitrile] yielded an IC50 of 4 nM.

In turn, `C[C@@H]1CN(c2ccc(C#N)c3ncccc23)C[C@H](C2=Nc3cccc(N4CCC5(CCNC5)C4)c3CN2)O1` (stereo partly drawn) [Example 13, 5-[(2R,6R)-2-[5-(2,7-diazaspiro[4.4]nonan-2-yl)-3,4-dihydroquinazolin-2-yl]-6-methyl-morpholin-4-yl]quinoline-8-carbonitrile] came in with an IC50 of 87 nM.

`C[C@@H]1CN(c2ccc(C#N)c3ncccc23)C[C@H](C2=Nc3ccc(N4CCNCC4)cc3CCN2)O1` [Example 17, 5-[(2R,6R)-2-methyl-6-(7-piperazin-1-yl-4,5-dihydro-3H-1,3-benzodiazepin-2-yl)morpholin-4-yl]quinoline-8-carbonitrile] returned a half-maximal inhibitory concentration (IC50) of 148 nM.

Take `C[C@@H]1CN(c2ccc(C#N)c3ncccc23)C[C@H](C2=Nc3ccc(N4CCNCC4)cc3CN2)O1` [Example 7, 5-[(2R,6R)-2-methyl-6-(6-piperazin-1-yl-3,4-dihydroquinazolin-2-yl)morpholin-4-yl]quinoline-8-carbonitrile]: the IC50 is under 3 nM.

The compound `C[C@@H]1CN(c2ccc(C#N)c3ncccc23)C[C@H](C2=Nc3cccc(C4=CCNCC4)c3CCN2)O1` [Example 16, 5-[(2R,6R)-2-methyl-6-[6-(1,2,3,6-tetrahydropyridin-4-yl)-4,5-dihydro-3H-1,3-benzodiazepin-2-yl]morpholin-4-yl]quinoline-8-carbonitrile] registered an IC50 of 191 nM.

`C[C@@H]1CN(c2ccc(C#N)c3ncccc23)C[C@H](C2=Nc3cccc(C4CCNCC4)c3CN2)O1` [Example 18, 5-[(2R,6R)-2-methyl-6-[5-(4-piperidyl)-3,4-dihydroquinazolin-2-yl]morpholin-4-yl]quinoline-8-carbonitrile] yielded an IC50 of 71 nM.

The compound `C[C@@H]1CN(c2ccc(C#N)c3ncccc23)C[C@H](C2=Nc3c(cccc3N3CCNCC3)CN2)O1` [Example 9, 5-[(2R,6R)-2-methyl-6-(8-piperazin-1-yl-3,4-dihydroquinazolin-2-yl)morpholin-4-yl]quinoline-8-carbonitrile] registered an IC50 of 46 nM.
